Experimental data: US20200270309A1, “MALEIMIDE GROUP-MODIFIED ANGIOGENESIS INHIBITOR HM-1 AND USE THEREOF” (NANJING ANJI BIOLOGICAL TECHNOLOGY CO., LTD, priority 2017, published 2020)
Where two headings read alike, the source gives them in different places. Peptide text beside a SMILES is read from it. * marks the point of attachment. Mal(CH2CH2O)6CH2CH2CO = O=C1C=CC(=O)N1CCOCCOCCOCCOCCOCCOCCC(=O)*; Hexanoyl(6-maleimido) = O=C1C=CC(=O)N1CCCCCC(=O)*; X7 = O=C1C=CC(=O)N1CCOCCOCCOCCOCCOCCOCCCCCCC(=O)*; Propanoyl(3-maleimido) = O=C1C=CC(=O)N1CCC(=O)*; X9 = O=C1C=CC(=O)N1CCOCCOCCOCCOCCOCCCCCCCC(=O)*; X11 = O=C1C=CC(=O)N1CCOCCOCCOCCOCCOCCCCCC(=O)*; X24 = O=C1C=CC(=O)N1CCOCCOCCOCCOCCOCCC(=O)*; X44 = O=C1C=CC(=O)N1c1ccc(CCCCCCCC(=O)*)cc1; X25 = O=C1C=CC(=O)N1CCOCCOCCOCCOCCCCC(=O)*; X47 = O=C1C=CC(=O)N1c1ccccc1CCCCC(=O)*; X70 = O=C1C=CC(=O)N1CCOCCOCCOCCCC(=O)*; X48 = O=C1C=CC(=O)N1CCCCCCCCCCCC(=O)*; X31 = O=C1C=CC(=O)N1CCOCCOCCOCC(=O)*; X12 = O=C1C=CC(=O)N1CCOCCCCC(=O)*; X38 = O=C1C=CC(=O)N1CCOCC(=O)*

Assay: Half-lives and pharmacokinetic parameters of polypeptides vs HM-1
Parameters: AUC0-∞: concentration or dose not given beside the values
Settings: in vivo
[1] = read-out: T1/2β (half-life) (converted)

SMILES	AUC0-∞ [mg/L/h]	half-life [1] [h]	AUC(0-inf) [ng·h/mL]	MRT inf [h]	clearance [mL/min/kg]	half-life [h]	half-life (T1/2β (half-life)) [h]	AUC(0-inf) (read-out: AUC0-∞) [ng·h/mL]	clearance (read-out: CL (converted)) [mL/min/kg]	MRT inf (read-out: MRT0-∞) [h]
CSCC[C@H](NC(=O)[C@H](Cc1c[nH]cn1)NC(=O)[C@H](CCC(N)=O)NC(=O)[C@H](CCCNC(=N)N)NC(=O)CCN1C(=O)C=CC1=O)C(=O)N[C@@H](Cc1ccccc1)C(=O)N[C@@H](CO)C(=O)N[C@@H](Cc1c[nH]c2ccccc12)C(=O)N[C@H](C(=O)N[C@@H](CC(C)C)C(=O)N[C@@H](C)C(=O)N[C@@H](CCCNC(=N)N)C(=O)N[C@@H](CC(N)=O)C(=O)N[C@@H](CC(=O)O)C(=O)N[C@@H](CCC(N)=O)C(=O)N[C@@H](CCC(=O)O)C(=O)N[C@@H](CCC(=O)O)C(=O)N[C@@H](CCCNC(=N)N)C(=O)NCC(=O)N[C@@H](CC(=O)O)C(=O)O)C(C)C [P1] ({Propanoyl(3-maleimido)}-RQHMFSWVLARNDQEERGD-OH; C-terminus assumed)	0.0336 ± 0.0083	36.96 ± 0.25	–	–	–	–	–	–	–	–
C[C@H](NC(=O)[C@H](CCCNC(=N)N)NC(=O)[C@H](CC(=O)O)NC(=O)[C@H](CCC(=O)O)NC(=O)CNC(=O)[C@H](CCCNC(=N)N)NC(=O)CCCCCN1C(=O)C=CC1=O)C(=O)NCC(=O)NCC(=O)NCC(=O)NCC(=O)N[C@@H](CCCNC(=N)N)C(=O)NCC(=O)N[C@@H](CC(=O)O)C(=O)O [P6] ({Hexanoyl(6-maleimido)}-RGEDRAGGGGRGD-OH; C-terminus assumed)	–	–	27700 ± 7130	49.6 ± 9.97	0.602	34.36 ± 0.25	–	–	–	–
C[C@H](NC(=O)CNC(=O)[C@H](CCCNC(=N)N)NC(=O)CCCCCOCCOCCOCCOCCOCCN1C(=O)C=CC1=O)C(=O)N[C@@H](CC(=O)O)C(=O)N[C@@H](CCCNC(=N)N)C(=O)N[C@@H](C)C(=O)NCC(=O)NCC(=O)NCC(=O)NCC(=O)N[C@@H](CCCNC(=N)N)C(=O)NCC(=O)N[C@@H](CC(=O)O)C(=O)O [X81] (X11-RGADRAGGGGRGD-OH)	–	–	30700 ± 8170	54.9 ± 11.5	0.543	–	38.06 ± 0.28	–	–	–
C[C@H](NC(=O)CNC(=O)[C@H](CCCNC(=N)N)NC(=O)CCCCOCCN1C(=O)C=CC1=O)C(=O)N[C@@H](CC(=O)O)C(=O)N[C@@H](CCCNC(=N)N)C(=O)N[C@@H](C)C(=O)NCC(=O)NCC(=O)NCC(=O)NCC(=O)N[C@@H](CCCNC(=N)N)C(=O)NCC(=O)N[C@@H](CC(=O)O)C(=O)O [X52] (X12-RGADRAGGGGRGD-OH)	–	–	27900 ± 8180	50.1 ± 9.67	0.597	–	34.69 ± 0.34	–	–	–
C[C@H](NC(=O)CNC(=O)[C@H](CCCNC(=N)N)NC(=O)CCCCCCOCCOCCOCCOCCOCCOCCN1C(=O)C=CC1=O)C(=O)N[C@@H](CC(=O)O)C(=O)N[C@@H](CCCNC(=N)N)C(=O)N[C@@H](C)C(=O)NCC(=O)NCC(=O)NCC(=O)NCC(=O)N[C@@H](CCCNC(=N)N)C(=O)NCC(=O)N[C@@H](CC(=O)O)C(=O)O [X89] (X7-RGADRAGGGGRGD-OH)	–	–	33100 ± 7150	59.1 ± 11.8	0.505	–	40.95 ± 0.27	–	–	–
CC[C@H](C)[C@H](NC(=O)[C@H](Cc1c[nH]cn1)NC(=O)[C@H](CCC(N)=O)NC(=O)[C@H](CCCNC(=N)N)NC(=O)CCN1C(=O)C=CC1=O)C(=O)N[C@@H](Cc1ccccc1)C(=O)N1CCC[C@H]1C(=O)N[C@@H](CO)C(=O)N[C@@H](Cc1c[nH]c2ccccc12)C(=O)N[C@@H](Cc1c[nH]c2ccccc12)C(=O)N[C@@H](Cc1ccccc1)C(=O)N[C@@H](Cc1c[nH]c2ccccc12)C(=O)N[C@@H](Cc1ccc(O)cc1)C(=O)N[C@@H](Cc1ccc(O)cc1)C(=O)N1CCC[C@H]1C(=O)N[C@@H](CC(=O)O)C(=O)N[C@@H](CCCNC(=N)N)C(=O)N[C@@H](CC(C)C)C(=O)N[C@@H](CCCCN)C(=O)N[C@@H](CCSC)C(=O)N[C@@H](CCCNC(=N)N)C(=O)NCC(=O)N[C@@H](CC(=O)O)C(=O)O [P3] ({Propanoyl(3-maleimido)}-RQHIFPSWWFWYYPDRLKMRGD-OH; C-terminus assumed)	0.0319 ± 0.0076	38.89 ± 0.3	–	–	–	–	–	–	–	–
C[C@H](NC(=O)CNC(=O)[C@H](CCCNC(=N)N)NC(=O)CCCCCCCOCCOCCOCCOCCOCCN1C(=O)C=CC1=O)C(=O)N[C@@H](CC(=O)O)C(=O)N[C@@H](CCCNC(=N)N)C(=O)N[C@@H](C)C(=O)NCC(=O)NCC(=O)NCC(=O)NCC(=O)N[C@@H](CCCNC(=N)N)C(=O)NCC(=O)N[C@@H](CC(=O)O)C(=O)O [X83] (X9-RGADRAGGGGRGD-OH)	–	–	29200 ± 7640	52.3 ± 11.7	0.57	–	36.23 ± 0.28	–	–	–
C[C@H](NC(=O)CNC(=O)[C@H](CCCNC(=N)N)NC(=O)CCCOCCOCCOCCN1C(=O)C=CC1=O)C(=O)N[C@@H](CC(=O)O)C(=O)N[C@@H](CCCNC(=N)N)C(=O)N[C@@H](C)C(=O)NCC(=O)NCC(=O)NCC(=O)NCC(=O)N[C@@H](CCCNC(=N)N)C(=O)NCC(=O)N[C@@H](CC(=O)O)C(=O)O [X65] (X70-RGADRAGGGGRGD-OH)	–	–	31800 ± 7280	57.1 ± 12.2	0.523	–	39.53 ± 0.31	–	–	–
C[C@H](NC(=O)CNC(=O)[C@H](CCCNC(=N)N)NC(=O)CCCCCCCCCCCN1C(=O)C=CC1=O)C(=O)N[C@@H](CC(=O)O)C(=O)N[C@@H](CCCNC(=N)N)C(=O)N[C@@H](C)C(=O)NCC(=O)NCC(=O)NCC(=O)NCC(=O)N[C@@H](CCCNC(=N)N)C(=O)NCC(=O)N[C@@H](CC(=O)O)C(=O)O [X11] (X48-RGADRAGGGGRGD-OH)	–	–	25100 ± 8260	44.9 ± 11.6	0.665	–	31.08 ± 0.29	–	–	–
C[C@H](NC(=O)CNC(=O)[C@H](CCCNC(=N)N)NC(=O)CCCCCCCc1ccc(N2C(=O)C=CC2=O)cc1)C(=O)N[C@@H](CC(=O)O)C(=O)N[C@@H](CCCNC(=N)N)C(=O)N[C@@H](C)C(=O)NCC(=O)NCC(=O)NCC(=O)NCC(=O)N[C@@H](CCCNC(=N)N)C(=O)NCC(=O)N[C@@H](CC(=O)O)C(=O)O [X43] (X44-RGADRAGGGGRGD-OH)	–	–	26700 ± 7420	47.8 ± 9.93	0.623	–	33.14 ± 0.31	–	–	–
C[C@H](NC(=O)CNC(=O)[C@H](CCCNC(=N)N)NC(=O)CCCCc1ccccc1N1C(=O)C=CC1=O)C(=O)N[C@@H](CC(=O)O)C(=O)N[C@@H](CCCNC(=N)N)C(=O)N[C@@H](C)C(=O)NCC(=O)NCC(=O)NCC(=O)NCC(=O)N[C@@H](CCCNC(=N)N)C(=O)NCC(=O)N[C@@H](CC(=O)O)C(=O)O [X16] (X47-RGADRAGGGGRGD-OH)	–	–	31400 ± 8390	56.3 ± 13.6	0.53	–	39 ± 0.24	–	–	–
C[C@H](NC(=O)CNC(=O)[C@H](CCCNC(=N)N)NC(=O)CCOCCOCCOCCOCCOCCOCCN1C(=O)C=CC1=O)C(=O)N[C@@H](CC(=O)O)C(=O)N[C@@H](CCCNC(=N)N)C(=O)N[C@@H](C)C(=O)NCC(=O)NCC(=O)NCC(=O)NCC(=O)N[C@@H](CCCNC(=N)N)C(=O)NCC(=O)N[C@@H](CC(=O)O)C(=O)O [X85] ({Mal(CH2CH2O)6CH2CH2CO}-RGADRAGGGGRGD-OH)	–	–	33100 ± 8520	59.1 ± 10.4	0.505	–	40.97 ± 0.26	–	–	–
C[C@H](NC(=O)CNC(=O)[C@H](CCCNC(=N)N)NC(=O)CCCCOCCOCCOCCOCCN1C(=O)C=CC1=O)C(=O)N[C@@H](CC(=O)O)C(=O)N[C@@H](CCCNC(=N)N)C(=O)N[C@@H](C)C(=O)NCC(=O)NCC(=O)NCC(=O)NCC(=O)N[C@@H](CCCNC(=N)N)C(=O)NCC(=O)N[C@@H](CC(=O)O)C(=O)O [X73] (X25-RGADRAGGGGRGD-OH)	–	–	26700 ± 8240	47.9 ± 13.6	0.623	–	33.16 ± 0.26	–	–	–
C[C@H](NC(=O)CNC(=O)[C@H](CCCNC(=N)N)NC(=O)CCN1C(=O)C=CC1=O)C(=O)N[C@@H](CC(=O)O)C(=O)N[C@@H](CCCNC(=N)N)C(=O)N[C@@H](C)C(=O)N[C@@H](CCC(=O)O)C(=O)N[C@@H](C)C(=O)N[C@@H](C)C(=O)N[C@@H](C)C(=O)N[C@@H](CCCCN)C(=O)N[C@@H](CCCNC(=N)N)C(=O)NCC(=O)N[C@@H](CC(=O)O)C(=O)O [P11] ({Propanoyl(3-maleimido)}-RGADRAEAAAKRGD-OH)	–	39.16 ± 0.31	–	–	–	–	–	31600 ± 8230	0.528	56.5 ± 11.6
C[C@H](NC(=O)CNC(=O)[C@H](CCCNC(=N)N)NC(=O)COCCN1C(=O)C=CC1=O)C(=O)N[C@@H](CC(=O)O)C(=O)N[C@@H](CCCNC(=N)N)C(=O)N[C@@H](C)C(=O)NCC(=O)NCC(=O)NCC(=O)NCC(=O)N[C@@H](CCCNC(=N)N)C(=O)NCC(=O)N[C@@H](CC(=O)O)C(=O)O [X49] (X38-RGADRAGGGGRGD-OH)	–	35.31 ± 0.32	–	–	–	–	–	28500 ± 7290	0.585	51 ± 11.1
C[C@H](NC(=O)CNC(=O)[C@H](CCCNC(=N)N)NC(=O)COCCOCCOCCN1C(=O)C=CC1=O)C(=O)N[C@@H](CC(=O)O)C(=O)N[C@@H](CCCNC(=N)N)C(=O)N[C@@H](C)C(=O)NCC(=O)NCC(=O)NCC(=O)NCC(=O)N[C@@H](CCCNC(=N)N)C(=O)NCC(=O)N[C@@H](CC(=O)O)C(=O)O [X63] (X31-RGADRAGGGGRGD-OH)	–	–	32300 ± 7650	57.7 ± 13.3	0.517	–	39.97 ± 0.31	–	–	–
C[C@H](NC(=O)CNC(=O)[C@H](CCCNC(=N)N)NC(=O)CCOCCOCCOCCOCCOCCN1C(=O)C=CC1=O)C(=O)N[C@@H](CC(=O)O)C(=O)N[C@@H](CCCNC(=N)N)C(=O)N[C@@H](C)C(=O)NCC(=O)NCC(=O)NCC(=O)NCC(=O)N[C@@H](CCCNC(=N)N)C(=O)NCC(=O)N[C@@H](CC(=O)O)C(=O)O [X78] (X24-RGADRAGGGGRGD-OH)	–	–	29800 ± 8510	53.4 ± 9.94	0.558	–	37.02 ± 0.31	–	–	–
